The assay concerns TNFSF3 mRNA. As to the kind of experiment: TNFSF3 mRNA in whole blood after dietary component and heat-aggregated IgG stimulation. In kind it is cell-based, human. The conditions noted are these: case 1, FIG. 5; pre-incubation 30 minutes, HAG 2 hours; quercetin 100 nmol/L. The procedure:
The mRNA and cDNA were prepared from the whole blood that was exposed to the dietary components, as well as the whole blood which remained unexposed. In brief, home-made 96-well filterplates were placed over collection plates, and 150 μl 5 mM Tris, pH 7.4, was applied. Following centrifugation at 120×g for 1 min at 4° C., 50 μl of blood samples were applied to each well and immediately centrifuged at 120×g for 2 min at 4° C., followed by washing of each well with 300 μl PBS once with centrifugation at 2000×g for 5 min at 4° C. […] The Ct was determined by analytical software (SDS, ABI).
In this embodiment, heparinized whole blood of two individuals was pre-incubated with various dietary supplements at 37° C. for 30 minutes (at the same blood concentrations as in Embodiment 2), then stimulated with 1.2 μL of heat-aggregated IgG. […] The level of TNFSF3 and TNFSF15 mRNA was then assessed using the method described in Embodiment 1, with the exception that SYBR Green PCR was used to quantitate the mRNA. […]

The results in this text go back to patent US20080206761A1, “Ex Vivo Gene Expression in Whole Blood as a Model of Assessment of Individual Variation to Dietary Supplements” (priority 2005, published 2008).

For `O=c1c(O)c(-c2ccc(O)c(O)c2)oc2cc(O)cc(O)c12` [quercetin], the “HAG-induced TNFSF3 expression, in words” value is “HAG induced TNFSF3 expression in blood exposed to quercetin”.
